# According to EP2501821B1, “PROCESS FOR PRODUCING PRIMYCIN, PRIMYCIN COMPONENT(S), PRECURSORS AND METABOLITES THEREOF VIA FEMENTATION BY THE USE OF BACTERIAL SPECIES SACCHAROMONOSPORA AZUREA” (Pannonpharma Gyógyszergyártó Kft., priority 2009, dated 2011):
# What was measured:
# [1] = tested on: Bacillus sp.; assay: primycin MIC, antimicrobial spectrum re-evaluation; type: cell-based; settings: culture collection strains
# Excerpt: (§1) In our research leading to our new findings we assayed the antimicrobial spectrum of primycin in order to re-evaluate the minimal inhibitory concentration (MIC) values known from the literature and to determine the primycin susceptibility of new isolates. Comparative test results on strains of Gram-positive bacterial species of Microbial strain culture collection of PTE TTK BI Department of General and Environmental Microbiology were in agreement with the literature data with primycin MIC values of 0.06 mg/L for Staphylococcus sp. and 0.03 mg/L for Bacillus sp. respectively. Primycin MIC values higher than 1 mg/L for any of the Gram-positive strains tested were not detected.
# [2] = tested on: Staphylococcus sp.; assay: primycin MIC, antimicrobial spectrum re-evaluation; type: cell-based; settings: culture collection strains
# Excerpt: as §1
# [3] = tested on: Gram-positive strains; assay: primycin MIC, antimicrobial spectrum re-evaluation; type: cell-based, Gram-positive bacterial species; settings: any of the Gram-positive strains tested
# Excerpt: as §1
# [4] = tested on: Gram-negative species; assay: primycin antimicrobial spectrum re-evaluation; type: cell-based
# Excerpt: as §1
# [5] = tested on: strains of species belonging to Saccharomonospora genus; assay: primycin MIC (primycin tolerance); type: cell-based
# [6] = tested on: S. cyanea (44106); assay: primycin MIC (primycin tolerance); type: cell-based; settings: S. cyanea DSM 44106
# Method: (§2) Strains were grown for seven days and once the colonies were removed and extracted, they were tested for antimicrobial production in agar diffusion tests. […] For this comparison we repeatedly used the strains of the culture collection of Department which had preliminary been tested for primycin susceptibility. Our work hypothesis was further supported by our experience that a butanol-ethanol-water mixture (in the ratio of 1:1:2 respectively) which is an effective solvent of primycin was suitable for the extraction of the antibiotic. […] Thereafter we carried out shake flask fermentations with the Saccharomonospora sp. strains suitable for the process. Production results on shake flasks of the strains tested were congruent to their cultivations on solid media. […] Table 1. Primycin tolerance and antibiotic production of Saccharomonospora isolates. *: S. azurea strains identified and registered on the name S. caesia earlier: […]
# [7] = tested on: S. glauca (43769); assay: primycin MIC (primycin tolerance); type: cell-based; settings: S. glauca DSM 43769
# Method: as §2
# [8] = tested on: S. viridis (43017); assay: primycin MIC (primycin tolerance); type: cell-based; settings: S. viridis DSM 43017
# Method: as §2
# [9] = tested on: S. xinjiangensis (44391); assay: primycin MIC (primycin tolerance); type: cell-based; settings: S. xinjiangensis DSM 44391
# Method: as §2
# [10] = tested on: Saccharomonospora azurea (caesia) DSM 43044; assay: primycin MIC (primycin tolerance); type: cell-based; settings: S. azurea (caesia) DSM 43044
# Method: as §2
# [11] = tested on: Saccharomonospora azurea (caesia) DSM 43068; assay: primycin MIC (primycin tolerance); type: cell-based; settings: S. azurea (caesia) DSM 43068
# Method: as §2
# [12] = tested on: Saccharomonospora azurea (caesia) DSM 43680; assay: primycin MIC (primycin tolerance); type: cell-based; settings: S. azurea (caesia) DSM 43680
# Method: as §2
# [13] = tested on: Saccharomonospora azurea DSM 44631; assay: primycin MIC (primycin tolerance); type: cell-based; settings: S. azurea DSM 44631
# Method: as §2
# [14] = tested on: Saccharomonospora aurea strains; assay: primycin MIC (primycin tolerance), summary statement; type: cell-based
# Excerpt: As it is known that antibiotic-producing strains are less susceptible to the antibiotic produced by themselves and the primordials of the existing primycin-producing strain also was selected by primycin tolerance level to enhance their production capability, it has been suspected that lowered primycin susceptibility of Saccharomonospora azurea strains can be the outcome of the production of an antibiotic with a mode of action analogue to that of primycin. The literature concordantly states that primycin has a unique mode of action, therefore it could be suspected from our surprising findings that the antibiotic supposedly produced by these strains can be primycin itself. However, there is no literature on primycin production of Saccharomonospora azurea or any other presently accepted species of Saccharomonospora genera.
# [15] = tested on: Staphylococcus aureus (50 strains); settings: broth dilution assay; cited from earlier work
# [16] = tested on: Staphylococcus epidermidis (77 strains); settings: broth dilution assay; cited from earlier work
# [17] = tested on: Streptococcus faecalis (76 strains); settings: broth dilution assay; cited from earlier work
# [18] = tested on: one strain of Listeria monocytogenes; settings: broth dilution assay; cited from earlier work
# [19] = in water; cited from earlier work
# [20] = tested on: Gram-positive bacteria and Mycobacterium species; settings: cited from earlier work
# [21] = tested on: in vitro cell cultures; settings: cited from earlier work
substance,measurement,setting,value
primycin,MIC,[1],0.03 µg/mL
same,MIC,[2],0.06 µg/mL
same,MIC,[3],≤ 1 µg/mL
same,effectiveness,[4],did not prove to be effective
same,MIC,[5],8 to 64 µg/mL
same,Primycin MIC,[6],8 µg/mL
same,Primycin MIC,[7],8 µg/mL
same,Primycin MIC,[8],"0,5 mg/L"
same,Primycin MIC,[9],1 µg/mL
same,Primycin MIC,[10],64 µg/mL
same,Primycin MIC,[11],64 µg/mL
same,Primycin MIC,[12],64 µg/mL
same,Primycin MIC,[13],64 µg/mL
same,MIC,[14],64 µg/mL
same,minimal inhibitory concentrations (MIC),[15],0.12 to 0.5 µg/mL
same,minimal inhibitory concentrations (MIC),[16],0.12 to 0.5 µg/mL
same,minimal inhibitory concentrations (MIC),[17],0.12 to 0.5 µg/mL
same,minimal inhibitory concentrations (MIC),[18],0.12 to 0.5 µg/mL
same,solubility,[19],poorly soluble in water
same,bacteriostatic effect,[20],has bacteriostatic effect
same,toxicity,[21],not shown to be toxic
